Drawing on patent US20210317092A1 (BAYER PHARMA AKTIENGESELLSCHAFT, priority 2016, published 2021), this text covers IC50 for 21 compounds.

Assay [1] has as its target T1, native human Bradykinin B1 receptor (Homo sapiens, UniProt P46663).
T1 construct: which express native human Bradykinin B1 receptor after induction with human IL-10; Coriell Institute; host or cells: IMR-90 human foetal lung fibroblasts, cytokine-induced
T1 sequence (P46663 1-353): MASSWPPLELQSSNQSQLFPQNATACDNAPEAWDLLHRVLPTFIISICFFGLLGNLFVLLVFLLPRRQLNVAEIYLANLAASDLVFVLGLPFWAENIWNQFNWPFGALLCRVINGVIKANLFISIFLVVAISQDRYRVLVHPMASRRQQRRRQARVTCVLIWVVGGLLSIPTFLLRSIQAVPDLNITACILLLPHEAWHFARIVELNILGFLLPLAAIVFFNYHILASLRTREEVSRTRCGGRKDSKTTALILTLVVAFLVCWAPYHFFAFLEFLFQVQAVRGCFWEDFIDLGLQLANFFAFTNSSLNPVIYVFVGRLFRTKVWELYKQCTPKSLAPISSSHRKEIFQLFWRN
The experiment in a line: Calcium flux Assay (FLIPR) with human fibroblasts expressing Bradykinin B1 receptor (hB1 IMR-90). The class given is cell-based. To be noted: IMR-90 human fibroblasts expressing native Bradykinin B1 receptor. The procedure:
Calcium flux Assay (FLIPR) with human fibroblasts expressing Bradykinin B1 receptor (hB1 IMR-90)
The Calcium flux Assay was carried out utilising IMR-90 human foetal lung fibroblasts (American Type Culture Collection, Rockville, Md.; and Coriell Institute, Camden, N.J.), which express native human Bradykinin B1 receptor after induction with human […].
The fibroblasts were cultured in complete growth media comprised of Dulbecco's modified Eagle's medium (DMEM; Sigma) containing 10% foetal bovine serum, 4 mM L-glutamine, and 1% nonessential amino acids. The cells were maintained in a humidified atmosphere with 5% CO2 at 37° C. and were sub-cultured at a ratio of 1:3, every other day.
For the assay, IMR-90 fibroblasts were harvested using TrypLE Express (GIBCO/Invitrogen) and seeded into 384-well plates (Corning Cellbinding Surface, Cat. 3683) at a density of 15000 cells/well. The following day, cells were treated with 0.35 ng/mL human […] in 10% FBS/MEM for 3h to up-regulate Bradykinin B1 receptor. Induced cells were loaded with fluorescent calcium indicator by incubation with 2.5 μM Fluo-4/AM (Invitrogen) at 37° C., 5% CO2 for 2 h in the presence of 2.5 mM probenecid in 1% FBS/MEM. Extracellular dye was removed by washing with assay buffer (2.5 mM probenecid and 0.1% BSA in 20 mM HEPES/HBSS without bicarbonate or phenol red, pH 7.5). Compound examples were assayed at 8 concentrations in triplicate. After addition of compound examples to the cell plate and incubation for 30 min at 28° C., the addition of Bradykinin B1 agonist Lys-(Des-Arg)-Bradykinin (Bachem, Brackley) at a final concentration of EC90 was carried out on the FLIPR instrument while continuously monitoring Ca^2+-dependent fluorescence at 538 nm. A peptide antagonist Lys-(Des-Arg-Leu)-Bradykinin (Bachem, Brackley) at 20 µM was used to determine the full inhibition as control. IC50 values were determined by the same way described for the FLIPR assay with recombinant cells.
In general terms: Calcium flux is commonly read through the fluorescence of an indicator in the cells.

The target of assay [2] is T2, human Bradykinin B1 receptor (Homo sapiens, UniProt P46663).
T2 construct: host or cells: CHO-K1
T2 sequence (P46663 1-353): T1 sequence (P46663 1-353)
Briefly: Calcium flux Assay (FLIPR) with recombinant CHO-K1 cells expressing human Bradykinin B1 receptor, in presence (hB1 IC50) or absence (hB1 free IC50) of 0.1% BSA. The class given is cell-based.

[3] abbreviates: in presence of 0.1% BSA, read-out: hB1 IC50.
Setting [4] is: in absence of 0.1% BSA, read-out: hB1 free IC50.

As usually defined, the IC50 is the point on the concentration scale where inhibition reaches its midpoint.

Where two headings read alike, the source gives them in different places.

For `CCOc1ccc(-c2ccc(NC(=O)C3(c4ccc(F)cc4F)CC3)cc2-c2nnn[nH]2)cc1OC` [Example 122, 1-(2,4-difluorophenyl)-N-[4′-ethoxy-3′-methoxy-2-(1H-tetrazol-5-yl)biphenyl-4-yl]cyclopropane carboxamide], the IC50 in assay [1] was 0.0287 µM; in assay [2] (setting [3]), 0.0565 µM.

Consider `COc1ccc(-c2ccc(NC(=O)C3(c4ccc(C)c(F)c4)CC3)cc2-c2nnn[nH]2)cc1OC` [Example 12, N-[3′,4′-dimethoxy-2-(1H-tetrazol-5-yl)biphenyl-4-yl]-1-(3-fluoro-4-methylpheny) cyclopropane-carboxamide], for which the figures for the IC50 in assay [1], in assay [2] (setting [4]) and in assay [2] (setting [3]) were 0.0393 µM, 0.0564 µM and 0.0181 µM, respectively.

Regarding `O=C(Nc1ccc(-c2ccc(C(F)(F)F)nc2)c(-c2nnn[nH]2)c1)C1(c2ccc(F)c(F)c2)CC1` [Example 193, 1-(3,4-difluorophenyl)-N-{3-(1H-tetrazol-5-yl)-4-[6-(trifluoromethyl)pyridin-3-yl]phenyl} cyclopropane-carboxamide], the IC50 in assay [1] worked out at 0.0806 µM; in assay [2] (setting [4]), 0.0953 µM.

As for `COc1ccc(-c2ccc(NC(=O)C3(c4ccc(Cl)cn4)CC3)cc2-c2nnn[nH]2)cc1OC` [Example 23, 1-(5-chloropyridin-2-yl)-N-[3′,4′-dimethoxy-2-(1H-tetrazol-5-yl)biphenyl-4-yl]cyclopropane carboxamide], the half-inhibitory concentration (IC50) came out at 0.0352 µM in assay [1], 0.145 µM in assay [2] (setting [4]) and 0.176 µM in assay [2] (setting [3]).

Consider `COCc1ccc(-c2ccc(NC(=O)C3(c4ccc(F)cc4F)CC3)cc2-c2nnn[nH]2)cn1` [Example 127, 1-(2,4-difluorophenyl)-N-{4-[6-(methoxymethyl)pyridin-3-yl]-3-(1H-tetrazol-5-yl)phenyl} cyclopropane-carboxamide], for which the IC50 in assay [1] stood at 0.0279 µM; in assay [2] (setting [4]) it was 0.0886 µM; in assay [2] (setting [3]) it was 0.0909 µM.

In the case of `COc1cncc(-c2ccc(NC(=O)C3(c4cccc(Cl)c4)CC3)cc2-c2nnn[nH]2)c1` [Example 153, 1-(3-chlorophenyl)-N-[4-(5-methoxypyridin-3-yl)-3-(1H-tetrazol-5-yl)phenyl] cyclopropane-carboxamide], the IC50 worked out at 0.0186 µM in assay [1], 0.00364 µM in assay [2] (setting [4]) and 0.0262 µM in assay [2] (setting [3]).

As to `CCOc1ccc(-c2ccc(NC(=O)C3(c4cc(F)cc(Cl)c4)CC3)cc2-c2nnn[nH]2)cn1` [Example 77, 1-(3-chloro-5-fluorophenyl)-N-[4-(6-ethoxypyridin-3 yl)-3-(1H-tetrazol-5-yl)phenyl] cyclopropane-carboxamide], the IC50 stood at 0.0217 µM in assay [1], 0.0161 µM in assay [2] (setting [4]) and 0.024 µM in assay [2] (setting [3]).

Take `COc1cc(-c2ccc(NC(=O)C3(c4cccc(Cl)c4)CC3)cc2-c2nnn[nH]2)ccc1C(F)(F)F` [Example 233, 1-(3-chlorophenyl)-N-[3′-methoxy-2-(1H-tetrazol-5-yl)-4′-(trifluoromethyl)biphenyl-4-yl]cyclopropane carboxamide]: the IC50 in assay [1] was found to be 0.0352 µM; in assay [2] (setting [4]) it was 0.0189 µM; in assay [2] (setting [3]) it was 0.0686 µM.

Take `CN(C)c1ccc(-c2ccc(NC(=O)C3(c4cccc(Cl)c4F)CC3)cc2-c2nnn[nH]2)cn1` [Example 168, 1-(3-chloro-2-fluorophenyl)-N-{4-[6-(dimethylamino)pyridin-3-yl]-3-(1H-tetrazol-5-yl)phenyl} cyclopropane-carboxamide]: the figures for the IC50 in assay [1], in assay [2] (setting [4]) and in assay [2] (setting [3]) were 0.0277 µM, 0.0586 µM and 0.0881 µM, respectively.

Take `O=C(Nc1ccc(-c2ccc(C(F)(F)F)nc2)c(-c2nnn[nH]2)c1)C1(c2ccc(Cl)c(F)c2)CC1` [Example 137, 1-(4-Chloro-3-fluorophenyl)-N-{3-(1H-tetrazol-5-yl)-4-[6-(trifluoromethyl)pyridin-3-yl]phenyl} cyclopropane-carboxamide]: the IC50 in assay [1] is 0.0439 µM; in assay [2] (setting [4]), 0.0171 µM.

With `CCOc1ccc(-c2ccc(NC(=O)C3(c4ccc(C)cc4)CC3)cc2-c2nnn[nH]2)cn1` [Example 99, N-[4-(6-ethoxypyridin-3-yl)-3-(1H-tetrazol-5-yl)phenyl]-1-(4-methylphenyl) cyclopropane-carboxamide], the results for the IC50 in assay [1] and in assay [2] (setting [3]) were 0.0118 µM and 0.024 µM, respectively.

As for `O=C(Nc1ccc(-c2ccc(C(F)(F)F)nc2)c(-c2nnn[nH]2)c1)C1(c2ccc(C(F)(F)F)cc2)CC1` [Example 140, N-{3-(1H-tetrazol-5-yl)-4-[6-(trifluoromethyl)pyridin-3-yl]phenyl}-1-[4-(trifluoromethyl)phenyl] cyclopropane-carboxamide], the values for the IC50 in assay [1] and in assay [2] (setting [4]) were 0.0851 µM and 0.0421 µM, respectively.

Take `CC(C)Oc1ccc(-c2ccc(NC(=O)C3(c4cccc(Cl)c4)CC3)cc2-c2nnn[nH]2)cn1` [Example 148, 1-(3-chlorophenyl)-N-[4-(6-isopropoxy-pyridin-3-yl)-3-(1H-tetrazol-5-yl)phenyl] cyclopropane-carboxamide]: the IC50 stood at 0.0185 µM in assay [1], 0.00194 µM in assay [2] (setting [4]) and 0.02 µM in assay [2] (setting [3]).

Consider `CCOc1ccc(-c2ccc(NC(=O)C3(c4cccc(F)c4)CC3)cc2-c2nnn[nH]2)cn1` [Example 80, N-[4-(6-ethoxypyridin-3-yl)-3-(1H-tetrazol-5-yl)phenyl]-1-(3-fluorophenyl) cyclopropane-carboxamide], for which the IC50 in assay [1] is 0.0272 µM; in assay [2] (setting [4]) it was 0.0296 µM; in assay [2] (setting [3]) it was 0.0256 µM.

Consider `O=C(Nc1ccc(-c2ccc(C(F)(F)F)nc2)c(-c2nnn[nH]2)c1)C1(c2ccc(Cl)cc2F)CC1` [Example 192, 1-(4-chloro-2-fluorophenyl)-N-{3-(1H-tetrazol-5-yl)-4-[6-(trifluoromethyl)pyridin-3-yl]phenyl} cyclopropane-carboxamide], for which the IC50 in assay [1] amounted to 0.0291 µM; in assay [2] (setting [4]) it was 0.0339 µM.

In the case of `Cc1cc(-c2c(F)cc(NC(=O)C3(c4ccc(C(F)(F)F)cc4F)CC3)cc2-c2nnn[nH]2)ccn1` [Example 265, N-[3-fluoro-4-(2-methylpyridin-4-yl)-5-(1H-tetrazol-5-yl)phenyl]-1-[2-fluoro-4-(trifluoromethyl)phenyl]cyclopro-panecarboxamide], the IC50 in assay [1] is 0.00228 µM; in assay [2] (setting [4]), 0.00263 µM.

As for `CCOc1ccc(-c2ccc(NC(=O)C3(c4ccc(Cl)c(F)c4)CC3)cc2-c2nnn[nH]2)cn1` [Example 70, 1-(4-chloro-3-fluorophenyl)-N-[4-(6-ethoxypyridin-3-yl)-3-(1H-tetrazol-5-yl)phenyl] cyclopropane-carboxamide], the results for the 50% inhibitory concentration (IC50) in assay [1], in assay [2] (setting [4]) and in assay [2] (setting [3]) were 0.006 µM, 0.00927 µM and 0.0125 µM, respectively.

Regarding `O=C(Nc1ccc(-c2ccc(C(F)F)nc2)c(-c2nnn[nH]2)c1)C1(c2cccc(Cl)c2)CC1` [Example 260, 1-(3-chlorophenyl)-N-{4-[6-(difluoromethyl)pyridin-3-yl]-3-(1H-tetrazol-5-yl)phenyl}cyclopro-panecarboxa-mide], the IC50 in assay [1] came out at 0.0149 µM; in assay [2] (setting [4]), 0.0188 µM.

Consider `CCOc1ccc(-c2ccc(NC(=O)C3(c4cc(Cl)ccc4F)CC3)cc2-c2nnn[nH]2)cn1` [Example 78, 1-(5-chloro-2-fluorophenyl)-N-[4-(6-ethoxypyridin-3-yl)-3-(1H-tetrazol-5-yl)phenyl] cyclopropane-carboxamide], for which the IC50 was 0.0158 µM in assay [1], 0.0212 µM in assay [2] (setting [4]) and 0.0245 µM in assay [2] (setting [3]).

Regarding `O=C(Nc1ccc(-c2ccc(C(F)(F)F)nc2)c(-c2nnn[nH]2)c1)C1(c2ccc(OC(F)(F)F)cc2)CC1` [Example 136, N-{3-(1H-tetrazol-5-yl)-4-[6-(trifluoromethyl)pyridin-3-yl]phenyl}-1-[4-(trifluoromethoxy)phenyl] cyclopropane-carboxamide], the IC50 in assay [1] worked out at 0.0157 µM; in assay [2] (setting [4]), 0.165 µM.

`O=C(Nc1ccc(-c2ccnc(C(F)(F)F)c2)c(-c2nnn[nH]2)c1)C1(c2ccc(Cl)cc2F)CC1` [Example 175, 1-(4-chloro-2-fluorophenyl)-N-{3-(1H-tetrazol-5-yl)-4-[2-(trifluoromethyl)pyridin-4-yl]phenyl} cyclopropane-carboxamide]: the IC50 in assay [1] was determined as 0.687 µM; in assay [2] (setting [4]), 0.216 µM.
